The results in this text go back to patent US20260265233A1, “BENZOTHIOPHENE DERIVATIVES AS RXFP1 AGONISTS” (BRISTOL-MYERS SQUIBB COMPANY, priority 2021, published 2026).

In the experiment the target is T1, human RXFP1 (Homo sapiens, UniProt Q9HBX9).
T1 construct: expressed in transfected cells
T1 sequence (Q9HBX9 1-757): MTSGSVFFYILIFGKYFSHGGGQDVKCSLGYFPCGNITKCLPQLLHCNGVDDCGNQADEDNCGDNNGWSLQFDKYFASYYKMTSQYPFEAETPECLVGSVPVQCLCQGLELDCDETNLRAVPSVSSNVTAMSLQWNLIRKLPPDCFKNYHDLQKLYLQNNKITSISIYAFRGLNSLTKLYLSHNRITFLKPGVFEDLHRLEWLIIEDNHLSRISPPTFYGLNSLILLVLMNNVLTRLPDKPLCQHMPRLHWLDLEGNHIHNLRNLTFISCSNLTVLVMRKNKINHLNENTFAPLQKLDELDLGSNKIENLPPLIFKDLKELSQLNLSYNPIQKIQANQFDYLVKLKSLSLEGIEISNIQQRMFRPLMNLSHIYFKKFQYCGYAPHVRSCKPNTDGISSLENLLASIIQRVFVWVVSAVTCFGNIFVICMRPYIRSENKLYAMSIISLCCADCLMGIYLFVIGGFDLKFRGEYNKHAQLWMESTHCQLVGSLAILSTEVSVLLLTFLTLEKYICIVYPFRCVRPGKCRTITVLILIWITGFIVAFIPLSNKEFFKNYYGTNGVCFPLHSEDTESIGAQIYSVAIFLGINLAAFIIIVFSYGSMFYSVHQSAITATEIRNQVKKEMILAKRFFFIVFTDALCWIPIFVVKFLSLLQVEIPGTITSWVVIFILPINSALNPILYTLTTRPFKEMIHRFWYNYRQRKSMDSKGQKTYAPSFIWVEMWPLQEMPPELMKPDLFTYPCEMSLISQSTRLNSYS
As to the kind of experiment: hRXFP1 HEK293 cAMP assay (HTRF). In kind it is cell-based. As to conditions: HEK293 cells stably expressing human RXFP1; 30 min at rt; intracellular cAMP by HTRF. Summed up:
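HEK293 cells stably expressing human RXFP1 treated 30 min at rt with compound (0.010 nM to 50 μM, 2% DMSO) in HBSS/HEPES buffer with 0.5 mM IBMX. Intracellular cAMP measured by HTRF (665/590 nm ratio) against a cAMP standard curve; potency fitted by 4-parameter logistic.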
A general note: Changes in cAMP serve as a functional read-out for many G protein-coupled receptors.

For `COc1ccc(C(=O)NC(C)(C)CO)cc1C(=O)Nc1c(C(=O)Nc2ccc(F)c(C(F)(F)F)c2)sc2cc(C(F)(F)F)ccc12` [Example 190, N3-(2-((4-fluoro-3-(trifluoromethyl)phenyl)carbamoyl)-6-(trifluoromethyl)benzo[b]thiophen-3-yl)-N1-(1-hydroxy-2-methylpropan-2-yl)-4-methoxy-isophthalamide], a half-maximal effect (EC50) was put at 689 nM.

In the case of `COc1ccc(-c2cc(CN(C)C)on2)cc1C(=O)Nc1c(C(=O)Nc2ccc(F)c(C(F)(F)F)c2)sc2cc(C(F)(F)F)ccc12` [Example 273, 3-(5-(5-((dimethylamino)methyl)isoxazol-3-yl)-2-methoxy-benzamido)-N-(4-fluoro-3-(trifluoromethyl)phenyl)-6-(trifluoromethyl) benzo[b] thiophene-2-carboxamide], the EC50 – broadly, the concentration that produces a half-maximal response – was 857 nM. The compound `COc1ccc(C2=NC(C(=O)N3CC(CO)C3)CO2)cc1C(=O)Nc1c(C(=O)Nc2ccc(F)c(C(F)(F)F)c2)sc2cc(C(F)(F)F)ccc12` (stereo not shown) [Example 282, N-[4-fluoro-3-(trifluoromethyl)phenyl]-3-(5-{4-[3-(hydroxymethyl)azetidine-1-carbonyl]-4,5-dihydro-1,3-oxazol-2-yl}-2-methoxy-benzamido)-6-(trifluoromethyl)-1-benzothiophene-2-carboxamide] had an EC50 of 9.6 nM. As for `COc1ccc(C2CC2C(=O)N2CC(OC)C2)cc1C(=O)Nc1c(C(=O)Nc2ccc(F)c(C(F)(F)F)c2)sc2cc(C(F)(F)F)ccc12` (stereo not shown) [Example 163, N-[4-fluoro-3-(trifluoromethyl)phenyl]-3-{2-methoxy-5-[2-(3-methoxyazetidine-1-carbonyl)cyclopropyl]benzamido}-6-(trifluoromethyl)-1-benzothiophene-2-carboxamide], the concentration giving a half-maximal response (EC50) turned out to be 662 nM. To `COc1ccc(C2=NOC3(C2)CN(C(=O)CO)C3)cc1C(=O)Nc1c(C(=O)Nc2ccc(F)c(C(F)(F)F)c2)sc2cc(C(F)(F)F)ccc12` [Example 285, N-(4-fluoro-3-(trifluoromethyl)phenyl)-3-(5-(2-(2-hydroxyacetyl)-5-oxa-2,6-diazaspiro[3.4]oct-6-en-7-yl)-2-methoxy-benzamido)-6-(trifluoromethyl) benzo[b] thiophene-2-carboxamide] belongs 1860 nM. Compound `COc1ccc(C23CCC(C(C)(C)O)(CC2)CC3)cc1C(=O)Nc1c(C(=O)Nc2ccc(F)c(C(F)(F)F)c2)sc2cc(C(F)(F)F)ccc12` [Example 40, N-(4-fluoro-3-(trifluoromethyl)phenyl)-3-(5-(4-(2-hydroxypropan-2-yl)bicyclo [2.2.2]octan-1-yl)-2-methoxybenzamido)-6-(trifluoromethyl) benzo[b]thiophene-2-carboxamide] had an EC50 of 220 nM. Against the preceding compound, the EC50 is about 8.5-fold lower. To `COc1ccc(C(=O)NCCS(C)(=O)=O)cc1C(=O)Nc1c(C(=O)Nc2ccc(F)c(C(F)(F)F)c2)sc2cc(Cl)ncc12` [Example 197, N3-(6-chloro-2-((4-fluoro-3-(trifluoromethyl)phenyl)carbamoyl)thieno[3,2-c]pyridin-3-yl)-4-methoxy-N1-(2-(methylsulfonyl)ethyl) isophthalamide] belongs 450 nM.

For `COc1ccc(-c2cc(C(NC(=O)C3CCOCC3)C(F)(F)F)ccc2F)cc1C(=O)Nc1c(C(=O)Nc2ccc(F)c(C(F)(F)F)c2)sc2cc(C(F)(F)F)ccc12` (single isomer, unassigned) [Example 21, N-(2,2,2-trifluoro-1-(6-fluoro-3′-((2-((4-fluoro-3-(trifluoromethyl)phenyl)carbamoyl)-6-(trifluoromethyl)benzo[b]thiophen-3-yl)carbamoyl)-4′-methoxy-[1,1′-biphenyl]-3-yl)ethyl)tetrahydro-2H-pyran-4-carboxamide], a half-maximal response (EC50) required 363 nM. Compound `COc1cc(F)c(C(=O)NCC2(S(C)(=O)=O)CC2)cc1C(=O)Nc1c(C(=O)Nc2ccc(F)c(C(F)(F)F)c2)sc2cc(C(F)(F)F)ccc12` [Example 186, 4-fluoro-N1-(2-((4-fluoro-3-(trifluoromethyl)phenyl)carbamoyl)-6-(trifluoromethyl)benzo[b]thiophen-3-yl)-6-methoxy-N3-((1-(methylsulfonyl)cyclopropyl)methyl) isophthalamide] showed an EC50 of 102 nM. `COc1ccc(C2CCCN(C(=O)CO)C2)cc1C(=O)Nc1c(C(=O)Nc2ccc(F)c(C(F)(F)F)c2)sc2cc(C(F)(F)F)ccc12` (single isomer, unassigned) [Example 91, N-[4-fluoro-3-(trifluoromethyl)phenyl]-3-{5-[1-(2-hydroxyacetyl)piperidin-3-yl]-2-methoxy-benzamido}-6-(trifluoromethyl)-1-benzothiophene-2-carboxamide] displayed an EC50 of 95.8 nM. To `COc1ccc(C2CCN(C3COC3)C2)cc1C(=O)Nc1c(C(=O)Nc2ccc(F)c(C(F)(F)F)c2)sc2cc(C(F)(F)F)ccc12` (stereo not shown) [Example 154, N-(4-fluoro-3-(trifluoromethyl)phenyl)-3-(2-methoxy-5-(1-(oxetan-3-yl)pyrrolidin-3-yl)benzamido)-6-(trifluoromethyl) benzo[b] thiophene-2-carboxamide] belongs 553 nM; to `COc1ccc(C(=O)N2CCC3(CC2)COC3)cc1C(=O)Nc1c(C(=O)Nc2ccc(F)c(C(F)(F)F)c2)sc2cc(C(F)(F)F)ccc12` [Example 222, N-(4-fluoro-3-(trifluoromethyl)phenyl)-3-(2-methoxy-5-(2-oxa-7-azaspiro[3.5]nonane-7-carbonyl)benzamido)-6-(trifluoromethyl) benzo[b] thiophene-2-carboxamide], 1610 nM. Then `CNC(=O)CN1CCCC(c2ccc(OC)c(C(=O)Nc3c(C(=O)Nc4ccc(F)c(C(F)(F)F)c4)sc4cc(C(F)(F)F)ccc34)c2)C1` (stereo not shown) [Example 78, N-(4-fluoro-3-(trifluoromethyl)phenyl)-3-(2-methoxy-5-(1-(2-(methylamino)-2-oxoethyl)piperidin-3-yl)benzamido)-6-(trifluoromethyl) benzo[b] thiophene-2-carboxamide], with 835 nM; and `COc1ncc(C(=O)N2CC3(COC3)C2)cc1C(=O)Nc1c(C(=O)Nc2ccc(F)c(C(F)(F)F)c2)sc2cc(C(F)(F)F)ccc12` [Example 172, N-(2-((4-fluoro-3-(trifluoromethyl)phenyl)carbamoyl)-6-(trifluoromethyl)benzo[b]thiophen-3-yl)-2-methoxy-5-(2-oxa-6-azaspiro[3.3]heptane-6-carbonyl) nicotinamide], with 701 nM. In the case of `COc1ccc(C2CC2CO)cc1C(=O)Nc1c(C(=O)Nc2ccc(F)c(C(F)(F)F)c2)sc2cc(C(F)(F)F)ccc12` (stereo not shown) [Example 49, N-(4-fluoro-3-(trifluoromethyl)phenyl)-3-(5-(2-(hydroxymethyl)cyclopropyl)-2-methoxybenzamido)-6-(trifluoromethyl) benzo[b]thiophene-2-carboxamide], it took 617 nM to reach a half-maximal effect (EC50). For the compound `COc1ccc(C2CCN(CC(N)=O)C2)cc1C(=O)Nc1c(C(=O)Nc2ccc(F)c(C(F)(F)F)c2)sc2cc(C(F)(F)F)ccc12` (stereo not shown) [Example 156, 3-(5-(1-(2-amino-2-oxoethyl)pyrrolidin-3-yl)-2-methoxy-benzamido)-N-(4-fluoro-3-(trifluoromethyl)phenyl)-6-(trifluoromethyl) benzo[b] thiophene-2-carboxamide], the EC50 was 2180 nM. `COc1ccc(C2CCN(CCS(C)(=O)=O)C2)cc1C(=O)Nc1c(C(=O)Nc2ccc(F)c(C(F)(F)F)c2)sc2cc(C(F)(F)F)ccc12` (single isomer, unassigned) [Example 149, N-(4-fluoro-3-(trifluoromethyl)phenyl)-3-(2-methoxy-5-(1-(2-(methylsulfonyl)ethyl)pyrrolidin-3-yl)benzamido)-6-(trifluoromethyl) benzo[b] thiophene-2-carboxamide]: the response was half-maximal at 1200 nM (EC50). As to `COc1ccc(C(=O)NCCS(C)(=O)=O)cc1C(=O)Nc1c(C(=O)Nc2ccc(F)c(C(F)(F)F)c2)sc2cc(C(F)(F)F)ccc12` [Example 232, N3-(2-((4-fluoro-3-(trifluoromethyl)phenyl)carbamoyl)-6-(trifluoromethyl)benzo[b]thiophen-3-yl)-4-methoxy-N1-(2-(methylsulfonyl)ethyl) isophthalamide], the EC50 came out at 4840 nM.

The compound `COc1ccc(-c2cc(S(=O)(=O)NC(C)(C)C)ccc2F)cc1C(=O)Nc1c(C(=O)Nc2ccc(F)c(C(F)(F)F)c2)sc2cc(C(F)(F)F)ccc12` [Example 111, 3-(5′-(N-(tert-butyl)sulfamoyl)-2′-fluoro-4-methoxy-[1,1′-biphenyl]-3-carboxamido)-N-(4-fluoro-3-(trifluoromethyl)phenyl)-6-(trifluoromethyl) benzo[b] thiophene-2-carboxamide] gave a concentration for a half-maximal effect (EC50) of 28.3 nM.
